Among the targets are Cytochrome P450 2C9 (Homo sapiens, UniProt P11712); Cytochrome P450 3A4 (Homo sapiens, UniProt P08684); Cytochrome P450 2D6 (Homo sapiens, UniProt P10635).
In assay [1] the target is Luciferin 4-monooxygenase (Photinus pyralis, UniProt P08659). As to the kind of experiment: inhibition of purified Photinus pyralis luciferase – biochemical, luminescence, dose response (AID 1891).
A short description of assay [2]: Luminescence Cell-Based Dose Confirmation HTS to Identify Inhibitors of Platelet Dense Granule Release. [Related pubchem assays: 1663 (Primary HTS), 1678 (Summary of Project)]. Format: functional.
Assay [3] is described as follows: fluconazole-exposed Candida albicans growth modulators – fluorescence, retest, confirmation (AID 2467). Format: functional, cell-based.
A short description of assay [4]: NIH-3T3 fibroblast cytotoxicity, dose response, cytotoxicity control, cell-based, fluorescence, Alamar Blue, secondary assay (AID 2327).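 Note: NIH-3T3 mouse fibroblasts cultured with fluconazole at 8 µg/mL.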 It is filed as functional.
For assay [5], the target named is T1, Corticotropin-releasing factor receptor 2/Corticotropin-releasing factor-binding protein (Homo sapiens, UniProt P24387+Q13324).
T1 sequence (Q13324 whole entry): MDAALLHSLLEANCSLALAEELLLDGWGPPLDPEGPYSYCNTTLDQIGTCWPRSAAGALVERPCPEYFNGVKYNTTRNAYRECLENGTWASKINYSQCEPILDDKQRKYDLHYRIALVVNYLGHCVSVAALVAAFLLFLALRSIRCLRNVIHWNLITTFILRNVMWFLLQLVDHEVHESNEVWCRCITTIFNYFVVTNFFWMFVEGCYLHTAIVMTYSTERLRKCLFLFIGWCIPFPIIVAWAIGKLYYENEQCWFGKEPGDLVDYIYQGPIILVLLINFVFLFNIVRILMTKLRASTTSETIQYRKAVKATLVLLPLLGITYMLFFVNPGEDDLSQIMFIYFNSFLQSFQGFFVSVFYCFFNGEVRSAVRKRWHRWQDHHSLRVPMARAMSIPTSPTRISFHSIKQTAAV
T1 sequence (P24387 whole entry): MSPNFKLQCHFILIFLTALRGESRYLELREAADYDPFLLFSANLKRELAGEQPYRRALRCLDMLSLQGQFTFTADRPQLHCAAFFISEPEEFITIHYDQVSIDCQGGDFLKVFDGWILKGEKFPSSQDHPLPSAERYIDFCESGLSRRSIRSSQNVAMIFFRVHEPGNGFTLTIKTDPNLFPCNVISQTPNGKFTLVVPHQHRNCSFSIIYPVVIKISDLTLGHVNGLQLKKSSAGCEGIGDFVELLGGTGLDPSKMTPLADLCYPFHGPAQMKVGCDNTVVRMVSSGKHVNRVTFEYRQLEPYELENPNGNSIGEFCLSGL
As to the kind of experiment: activators of CRF receptor 2 with binding protein – uHTS hits, confirmation (AID 602473). The note with it: read-out: EC50_Mean. It is filed as functional.

The target in the next assay is Cytochrome P450 2C19 (Homo sapiens, UniProt P33261). As to the kind of experiment: Cytochrome panel assay with activity outcomes. Panel member name: p450-cyp2c19 Compounds with AC50 equal or less than 10 uM are considered active. It is filed as functional. The settings on record: read-out: AC50.
Assay [6] has as its system Streptococcus sp. 'group A'. As to the kind of experiment: Streptococcus pyogenes SK(-)GAS viability under kanamycin – luminescence, BacTiterGlo, confirmation, counter-screen for streptokinase expression inhibitor project, dose response (AID 1900). Format: functional, organism-based.
The target of the next assay is T2, Streptokinase A (Streptococcus pyogenes serotype M1, UniProt P10520).
T2 sequence (P10520 whole entry): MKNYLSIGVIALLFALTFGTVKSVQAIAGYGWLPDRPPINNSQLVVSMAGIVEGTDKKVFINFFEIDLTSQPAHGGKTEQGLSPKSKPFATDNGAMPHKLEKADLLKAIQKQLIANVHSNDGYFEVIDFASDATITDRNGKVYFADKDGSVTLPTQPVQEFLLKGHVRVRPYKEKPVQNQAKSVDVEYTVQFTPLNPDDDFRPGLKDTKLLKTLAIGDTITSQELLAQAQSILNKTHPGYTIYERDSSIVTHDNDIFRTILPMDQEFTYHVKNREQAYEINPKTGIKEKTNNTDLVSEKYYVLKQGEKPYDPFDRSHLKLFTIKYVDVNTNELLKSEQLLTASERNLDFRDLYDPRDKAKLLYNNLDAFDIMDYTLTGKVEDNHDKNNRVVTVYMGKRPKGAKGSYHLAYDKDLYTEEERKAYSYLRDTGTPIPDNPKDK
As to the kind of experiment: viability-normalized secreted streptokinase activity reduction – plasminogen activation absorbance, OD405, dose response (AID 1914).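 Note: secreted streptokinase activity via plasminogen activation per viability signal from cell pellet.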 It is filed as functional, Streptococcus pyogenes M1 GAS.

The subject of the next assay is Streptococcus. As to the kind of experiment: GAS UMAA2166 growth inhibition – luminescence, BacTiterGlo, counter-screen for streptokinase expression inhibitor project, dose response (AID 1915).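 Note: potency for reduction of bacterial viability or growth.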 Format: functional, organism-based. A general note: Counterscreens check selectivity or assay interference.
The next assay concerns the target T3, Cytochrome P450 1A2 (Homo sapiens, UniProt P05177).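 Note: PubChem cytochrome P450 panel assay, CYP1A2 panel member.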
T3 sequence (P05177 whole entry): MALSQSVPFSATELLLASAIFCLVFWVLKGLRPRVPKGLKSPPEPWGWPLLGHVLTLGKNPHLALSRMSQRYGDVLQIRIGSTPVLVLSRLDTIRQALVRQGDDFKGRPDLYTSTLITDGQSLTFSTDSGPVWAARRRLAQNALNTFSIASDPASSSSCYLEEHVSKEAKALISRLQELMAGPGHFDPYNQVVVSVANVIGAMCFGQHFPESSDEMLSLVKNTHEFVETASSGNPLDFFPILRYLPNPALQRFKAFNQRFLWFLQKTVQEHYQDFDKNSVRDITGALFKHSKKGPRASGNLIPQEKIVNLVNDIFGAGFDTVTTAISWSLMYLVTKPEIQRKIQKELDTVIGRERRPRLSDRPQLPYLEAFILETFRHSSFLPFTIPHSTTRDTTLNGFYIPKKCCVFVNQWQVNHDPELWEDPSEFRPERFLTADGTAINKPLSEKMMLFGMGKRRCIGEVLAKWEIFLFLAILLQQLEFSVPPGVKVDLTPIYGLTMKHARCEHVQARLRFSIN

Assay [7] deals with T4, Zinc finger protein mex-5 (Caenorhabditis elegans, UniProt Q9XUB2).
T4 sequence (Q9XUB2 whole entry): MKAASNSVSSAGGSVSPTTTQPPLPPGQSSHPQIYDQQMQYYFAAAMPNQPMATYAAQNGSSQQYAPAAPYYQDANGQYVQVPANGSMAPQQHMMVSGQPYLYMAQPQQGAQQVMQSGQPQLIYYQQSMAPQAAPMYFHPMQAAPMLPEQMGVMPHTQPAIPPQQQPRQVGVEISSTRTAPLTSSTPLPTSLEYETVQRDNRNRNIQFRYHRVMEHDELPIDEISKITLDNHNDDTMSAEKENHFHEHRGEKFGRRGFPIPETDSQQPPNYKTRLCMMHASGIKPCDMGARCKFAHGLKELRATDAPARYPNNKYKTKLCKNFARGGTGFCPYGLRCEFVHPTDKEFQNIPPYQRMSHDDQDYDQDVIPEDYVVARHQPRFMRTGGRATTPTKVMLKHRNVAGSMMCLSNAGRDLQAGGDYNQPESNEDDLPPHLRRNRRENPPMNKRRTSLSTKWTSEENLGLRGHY
As to the kind of experiment: potency of MEX-5 RNA-binding blockers – biochemical, C. elegans, fluorescence polarization, dose response (AID 1960). For orientation: Polarisation of emitted light reports the rotation of a fluorescent probe.

In assay [8] the target is T5, RNA-binding protein pos-1 (Caenorhabditis elegans, UniProt G5EF15).
T5 sequence (G5EF15 whole entry): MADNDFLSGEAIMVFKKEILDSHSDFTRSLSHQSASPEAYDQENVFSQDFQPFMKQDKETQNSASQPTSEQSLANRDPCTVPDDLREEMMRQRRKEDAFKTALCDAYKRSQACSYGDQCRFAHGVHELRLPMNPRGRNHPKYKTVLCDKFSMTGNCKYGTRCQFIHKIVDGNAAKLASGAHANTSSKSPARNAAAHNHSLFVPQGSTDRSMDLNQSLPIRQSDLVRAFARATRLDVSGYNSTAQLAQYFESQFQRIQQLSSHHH
As to the kind of experiment: disruptors of C. elegans POS-1 RNA interaction – biochemical, fluorescence polarization, dose response (AID 1964).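 Note: purified POS-1 fused to maltose binding protein made in E. coli; potency of compounds blocking POS-1 binding to fluorescent RNA.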

The nature of assay [9]: alpha-synuclein stem-loop luciferase translation blockers – H4 neuroglioma cells, luminescence, confirmation (AID 1988). It is filed as functional, cell-based.
Assay [10] can be described thus: luciferase reporter signal suppression in cells – H4 neuroglioma cells, luminescence, dose response (AID 1990). It is filed as functional, cell-based. A general note: A reporter such as luciferase makes a cellular process visible.

Counter-ions that a name gives are not always drawn. Calls of active or inactive are those of the source.

By AC50 is commonly meant the midpoint of the concentration-response curve, whichever way the signal moves.

Sequence of Cytochrome P450 2D6 (P10635 whole entry): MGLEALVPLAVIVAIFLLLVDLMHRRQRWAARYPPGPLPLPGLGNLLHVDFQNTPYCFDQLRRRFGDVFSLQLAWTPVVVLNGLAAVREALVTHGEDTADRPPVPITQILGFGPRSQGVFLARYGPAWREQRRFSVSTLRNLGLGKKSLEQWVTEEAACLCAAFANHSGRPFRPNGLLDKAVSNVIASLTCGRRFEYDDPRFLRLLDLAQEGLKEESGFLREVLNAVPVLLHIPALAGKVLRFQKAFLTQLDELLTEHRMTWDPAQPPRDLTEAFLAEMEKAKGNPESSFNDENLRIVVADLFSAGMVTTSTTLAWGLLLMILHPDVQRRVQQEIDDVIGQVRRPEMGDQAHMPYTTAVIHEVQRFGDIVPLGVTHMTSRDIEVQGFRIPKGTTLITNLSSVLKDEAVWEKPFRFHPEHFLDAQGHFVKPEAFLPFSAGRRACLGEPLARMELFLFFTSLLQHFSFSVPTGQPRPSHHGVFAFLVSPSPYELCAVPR
Sequence of Luciferin 4-monooxygenase (P08659 whole entry): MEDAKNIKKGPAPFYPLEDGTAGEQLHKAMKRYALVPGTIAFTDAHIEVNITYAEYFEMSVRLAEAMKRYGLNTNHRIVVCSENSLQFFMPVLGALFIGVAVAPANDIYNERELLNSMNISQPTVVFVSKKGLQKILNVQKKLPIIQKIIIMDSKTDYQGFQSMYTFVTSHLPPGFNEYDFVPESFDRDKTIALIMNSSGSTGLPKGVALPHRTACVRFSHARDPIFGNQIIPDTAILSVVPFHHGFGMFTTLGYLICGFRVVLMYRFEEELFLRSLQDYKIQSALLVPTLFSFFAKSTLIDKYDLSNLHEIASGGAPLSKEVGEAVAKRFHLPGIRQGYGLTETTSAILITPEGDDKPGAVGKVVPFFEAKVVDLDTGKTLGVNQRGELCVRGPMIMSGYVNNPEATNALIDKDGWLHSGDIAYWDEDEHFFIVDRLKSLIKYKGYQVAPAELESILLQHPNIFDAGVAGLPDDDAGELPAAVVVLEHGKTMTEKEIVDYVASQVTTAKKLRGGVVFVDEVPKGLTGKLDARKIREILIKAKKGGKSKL
Sequence of Cytochrome P450 2C19 (P33261 whole entry): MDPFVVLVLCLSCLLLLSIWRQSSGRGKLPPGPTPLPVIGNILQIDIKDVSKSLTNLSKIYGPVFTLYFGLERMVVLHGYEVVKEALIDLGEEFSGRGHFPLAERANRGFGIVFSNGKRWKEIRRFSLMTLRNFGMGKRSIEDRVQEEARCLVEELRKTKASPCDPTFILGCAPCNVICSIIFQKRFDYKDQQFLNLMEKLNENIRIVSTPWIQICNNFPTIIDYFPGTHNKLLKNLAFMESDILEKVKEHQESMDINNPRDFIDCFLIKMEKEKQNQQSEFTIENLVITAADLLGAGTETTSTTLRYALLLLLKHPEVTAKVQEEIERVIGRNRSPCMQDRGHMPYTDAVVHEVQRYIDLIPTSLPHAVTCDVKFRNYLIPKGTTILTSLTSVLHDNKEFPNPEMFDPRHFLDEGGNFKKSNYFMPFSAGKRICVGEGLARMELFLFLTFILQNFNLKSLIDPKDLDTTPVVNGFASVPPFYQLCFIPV
Sequence of Cytochrome P450 3A4 (P08684 whole entry): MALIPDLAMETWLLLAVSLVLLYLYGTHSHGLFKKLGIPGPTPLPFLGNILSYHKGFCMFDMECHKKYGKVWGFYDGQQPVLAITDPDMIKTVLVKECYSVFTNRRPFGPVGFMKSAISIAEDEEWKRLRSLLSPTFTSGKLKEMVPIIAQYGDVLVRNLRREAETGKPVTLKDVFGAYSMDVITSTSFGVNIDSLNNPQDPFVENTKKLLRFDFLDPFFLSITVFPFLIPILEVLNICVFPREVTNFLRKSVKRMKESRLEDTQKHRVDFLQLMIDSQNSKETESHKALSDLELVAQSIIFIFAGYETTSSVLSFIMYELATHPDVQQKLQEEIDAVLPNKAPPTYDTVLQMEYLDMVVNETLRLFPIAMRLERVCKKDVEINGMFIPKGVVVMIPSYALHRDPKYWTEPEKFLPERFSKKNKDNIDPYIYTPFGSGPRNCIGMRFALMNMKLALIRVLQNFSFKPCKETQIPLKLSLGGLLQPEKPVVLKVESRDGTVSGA
Sequence of Cytochrome P450 2C9 (P11712 whole entry): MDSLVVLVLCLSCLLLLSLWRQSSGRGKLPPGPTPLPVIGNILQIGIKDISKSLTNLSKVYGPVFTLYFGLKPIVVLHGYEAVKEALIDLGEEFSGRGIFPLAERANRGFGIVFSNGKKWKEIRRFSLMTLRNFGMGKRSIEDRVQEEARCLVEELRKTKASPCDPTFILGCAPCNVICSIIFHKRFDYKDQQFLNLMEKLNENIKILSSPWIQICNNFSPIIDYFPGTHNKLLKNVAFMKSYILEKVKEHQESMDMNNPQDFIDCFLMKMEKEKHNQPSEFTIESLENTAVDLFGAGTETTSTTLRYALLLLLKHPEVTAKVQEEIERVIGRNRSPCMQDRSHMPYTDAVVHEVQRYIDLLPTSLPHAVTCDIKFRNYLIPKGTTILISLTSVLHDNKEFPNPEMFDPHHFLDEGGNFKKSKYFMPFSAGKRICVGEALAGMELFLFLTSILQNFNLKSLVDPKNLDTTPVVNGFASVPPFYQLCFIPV

With `N#CC(c1ccc(Cl)cc1)N1CCOCC1` (centres undefined), the EC50 in assay [1] and in assay [2] was > 112 µM (not active) in each case.

With `COc1ccnc(Oc2cccc(C(F)(F)F)c2)c1C(=O)N=CNOCc1ccccc1F`, the results for the EC50 in assay [3] and in assay [4] were > 38 µM (not active) and > 150 µM (inactive), respectively.

For `CCOC(=O)Cc1csc(NC(=O)CSc2nnc(-c3ccc(NS(=O)(=O)CC)cc3)o2)n1`, the values for the EC50 in [3] and in [4] were > 38 µM (not active) and > 150 µM (inactive), respectively.

Consider `CC(C)NS(=O)(=O)c1ccc(NC(=O)C(C)Oc2ccc(C(=O)c3ccccc3)cc2)cc1` (centres undefined), for which the EC50 in assay [5] is 4.6 µM (active).

On to `COc1ccc(C(C)NC(=O)c2ccccc2Cl)cc1OC` (centres undefined), for which the EC50 in assay [1] and in assay [2] was > 112 µM (not active) throughout.

As to `O=C(COC(=O)c1[nH]nc2ccccc12)Nc1cccc(S(=O)(=O)N2CCOCC2)c1`, the EC50 in [2] is > 112 µM (not active).

On to `COc1ccc(OC)c2nc(O)c(CCNS(=O)(=O)c3ccccc3)cc12`, for which the AC50 was 14.1 µM (inconclusive) at Cytochrome P450 2C9, 14.1 µM (inconclusive) at Cytochrome P450 3A4 and 3.16 µM (inconclusive) at Cytochrome P450 2C19.

For the compound `O=C(c1ccc(S(=O)(=O)Nc2ccccc2)cc1)N1CCCCCCC1`, the EC50 in [1] and in assay [2] was > 112 µM (not active) each time.

For the compound `O=C(COC(=O)CC(c1ccccc1)c1ccccc1)NCc1ccc(Cl)cc1`, the EC50 in assay [5] is > 53 µM (inactive).

For `COc1ccc(CNCCNC(=O)c2ccco2)c(OC)c1OC`, the EC50 in [3] is > 38 µM (not active); in [4], > 160 µM (inactive).

In the case of `CC(C)(C)c1ccc(C(=O)NNc2ccc(F)cc2F)cc1`, the EC50 in assay [3] was > 38 µM (not active); in [4], 32.2 µM (active).

For `Cc1ccc(C(=O)NC(=S)NNC(=O)c2cccc([N+](=O)[O-])c2)cc1`, the EC50 in assay [6] was 1.53 µM (active); in [5] it was 2.89 µM (active); on Streptokinase A, > 150 µM (not active); in the assay with Streptococcus it was 21.7 µM (active).

As for `Cc1ccc(C)c(NC(S)=NNC(=O)c2csc3c2CCC(C)C3)c1` (centres undefined), the EC50 was 3.32 µM (active) in assay [3] and > 150 µM (inactive) in assay [4].

Turning to `COc1ccc(-c2nc(CSCC(=O)N3CCN(c4cccc(C)c4)C(C)C3)c(C)o2)cc1OC` (centres undefined), the EC50 in assay [1] and in assay [2] was > 112 µM (not active) throughout.

On to `O=C(CSc1nnc(-c2cccs2)n1-c1ccccc1)N1CCCC1`, for which the AC50 at Cytochrome P450 2D6 is 7.94 µM (inconclusive); at Cytochrome P450 2C9, 12.6 µM (inconclusive); at Cytochrome P450 3A4 it was 28.2 µM (inconclusive); on Cytochrome P450 2C19, 28.2 µM (inconclusive).

In the case of `COc1cccc(Cn2c(=O)c(-c3ccccc3)nc3cnc(OC)nc32)c1`, the AC50 was 15.8 µM (inconclusive) at Cytochrome P450 1A2, 39.8 µM (inconclusive) at Cytochrome P450 2D6 and 39.8 µM (inconclusive) on Cytochrome P450 2C19.

With `CC(=O)NNC(=S)NC(=O)C(c1ccccc1)c1ccccc1`, the EC50 was 3.24 µM (active) in assay [6]; 1.52 µM (active) in [3]; > 150 µM (not active) at Streptokinase A; > 150 µM (inactive) in assay [4]; 10.4 µM (active) with Streptococcus.

Regarding `NC(=O)CSc1cn(Cc2cccc(F)c2)c2ccccc12`, the EC50 in assay [1] and in assay [2] was > 112 µM (not active) each time.

For `Cc1ccc(C(=O)Nc2ccc(C)c(S(=O)(=O)N3CCOCC3)c2)c(C)c1`, the EC50 in assay [1] and in [2] was > 112 µM (not active) each time.

Turning to `CCCC[C@@H]1C[C@H]1C(NC(=O)c1cccs1)c1ccc(-c2ccccc2)cc1` (some centres undefined), the figures for the AC50 on Cytochrome P450 1A2, at Cytochrome P450 3A4 and on Cytochrome P450 2C19 were 2 µM (inconclusive), 6.31 µM (inconclusive) and 3.16 µM (inconclusive), respectively.

In the case of `COc1ccc(/N=C/c2c(O)c3ccccc3n2C(C)=O)cc1`, the EC50 is > 300 µM (inconclusive) in [7], > 300 µM (inconclusive) in assay [8] and 6.35 µM (active) in assay [5].

As to `C/C(=N/OC(=O)c1ccc(C)cc1)c1cccs1`, the EC50 in [1] is 1.22 µM (active); in [2], 5.14 µM (active).

On to `Brc1ccc(-c2nc(N/N=C/c3cccnc3)c3ccccc3n2)cc1`, for which the EC50 in assay [1] was 0.248 µM (active); in assay [2], 0.407 µM (active).

On to `Nc1ccn([C@@H]2O[C@H](CO)[C@@H](O)[C@@H]2O)c(=O)n1` [CYTARABINE HYDROCHLORIDE], for which the EC50 in [9] and in assay [10] was < 0.1 µM (active) throughout.

For `OCCN1CCN(CCC=C2c3ccccc3Sc3ccc(Cl)cc32)CC1` [ZUCLOPENTHIXOL], the AC50 at Cytochrome P450 2D6 is 10 µM (inconclusive); at Cytochrome P450 3A4, 12.6 µM (inconclusive); at Cytochrome P450 2C19 it was 2.51 µM (inconclusive).

Source of the values: ChEMBL document CHEMBL1201862, “PubChem BioAssay data set” (2004).
